Experimental data reported in patent US20120021973A1, “Peptides for Treatment of Obesity” (priority 2008, published 2012).
*1 amine or outer side, *2 acyl side, *3 side chain or, on linkers, in order; H or OH if unused. Where a SMILES comes first, the peptide text is derived from it. Bridges are numbered along the chain shown (N, C = ends). [ ]: non-standard residue; d: D form. The star is where a group is joined. Palmitoyl(16-(5-tetrazolyl)) = O=C(CCCCCCCCCCCCCCCc1nnn[nH]1)*; Lys(CH2CO2H)2 = N[C@@H](CCCCN(CC(=O)O)CC(=O)O)C(=O)O; X1 = O=C(O)CN(CC(=O)O)C[C@H](N[*:1])C(=O)[*:2]; C20 diacid = O=C(O)CCCCCCCCCCCCCCCCCCC(=O)*; Hyp = O=C(O)[C@@H]1C[C@@H](O)CN1; NTA = O=C(O)CN(CC(=O)O)CC(=O)*; Nle = CCCC[C@H](N)C(=O)O; Dap = NC[C@H](N)C(=O)O; AEEA = NCCOCCOCC(=O)O; βAla = NCCC(=O)O

Test system: ad libitum fed rat
Experiment: Assay (I) efficacy testing on appetite, ad libitum fed rat model
Assay type: in vivo
Protocol: Assay (I)— Experimental Protocol for Efficacy Testing on Appetite with MC4 Analogues, Using an Ad Libitum Fed Rat Model.
TAC:SPRD @mol rats or Wistar rats from M&B Breeding and Research Centre A/S, Denmark are used for the experiments. The rats have a body weight 200-250 g at the start of experiment. The rats arrive at least 10-14 days before start of experiment with a body weight of 180-200 g. Each dose of compound is tested in a group of 8 rats. A vehicle group of 8 rats is included in each set of testing.
When the animals arrive they are housed individually in a reversed light/dark phase (lights off 7:30 am, lights on 7:30 pm), meaning that lights are off during daytime and on during nighttime. Since rats normally initiate food intake when light is removed, and eat the major part of their daily food intake during the night, this set up results in an alteration of the initiation time for food intake to 7:30 am, when lights are switched off. During the acclimatization period of 10-14 days, the rats have free access to food and water. During this period the animals are handled at least 3 times. The experiment is conducted in the rats' home cages. Immediately before dosing the rats are randomised to the various treatment groups (n 8) by body weight. They are dosed according to body weight at between 7:00 am and 7:45 am, with a 1-3 mg/kg solution administered intraperitoneally (ip), orally (po) or subcutaneously (sc). The time of dosing is recorded for each group. After dosing, the rats are returned to their home cages, where they then have access to food and water. The food consumption is recorded individually every hour for 7 hours, and then after 24 h and sometimes 48 h. At the end of the experimental session, the animals are euthanised.
The individual data are recorded in Microsoft excel sheets. Outliers are excluded after applying the Grubbs statistical evaluation test for outliers, and the result is presented graphically using the GraphPad Prism program.

| Compound | Food consumption (% of vehicle) 24 h (3 mg/kg) | Food consumption (% of vehicle) 48 h (3 mg/kg) | Food consumption (% of vehicle) 24 h (1 mg/kg) | Food consumption (% of vehicle) 48 h (1 mg/kg) |
| --- | --- | --- | --- | --- |
| CCCC[C@H](NC(=O)[C@H](CNC(=O)CN(CC(=O)O)CC(=O)O)NC(=O)[C@H](CO)NC(=O)[C@H](CCC(N)=O)NC(=O)[C@H](CO)NC(=O)CNC(=O)COCCOCCNC(=O)CCCCCCCCCCCCCCCc1nnn[nH]1)C(=O)N[C@H]1CCC(=O)NCCCC[C@@H](C(N)=O)NC(=O)[C@H](Cc2c[nH]c3ccccc23)NC(=O)[C@H](CCCNC(=N)N)NC(=O)[C@@H](Cc2ccccc2)NC(=O)[C@@H]2C[C@@H](O)CN2C1=O [Example 4, (2-{2-[16-(Tetrazol-5-yl)hexadecanoylamino]ethoxy}ethoxy)acetyl-Gly-Ser-Gln-Ser-Dap(BCMA)-Nle-c[Glu-Hyp-D-Phe-Arg-Trp-Lys]-NH2] ({Palmitoyl(16-(5-tetrazolyl))-AEEA}-GSQS[Dap](NTA)[Nle]E[Hyp][dF]RWK-NH2; lactam 7-12) | 52 % of vehicle | 69 % of vehicle |  |  |
| CCCC[C@H](NC(=O)[C@H](CN(CC(=O)O)CC(=O)O)NC(=O)[C@H](Cc1c[nH]cn1)NC(=O)[C@H](CCC(N)=O)NC(=O)[C@H](CO)NC(=O)CNC(=O)COCCOCCNC(=O)CCCCCCCCCCCCCCCc1nnn[nH]1)C(=O)N[C@H]1CCC(=O)NCCCC[C@@H](C(N)=O)NC(=O)[C@H](Cc2c[nH]c3ccccc23)NC(=O)[C@H](CCCNC(=N)N)NC(=O)[C@@H](Cc2ccccc2)NC(=O)[C@@H]2C[C@@H](O)CN2C1=O [Example 6, (2-{2-[16-(Tetrazol-5-yl)hexadecanoylamino]ethoxy}ethoxy)acetyl-Gly-Ser-Gln-His-Dap(biscarboxymethyl)-Nle-c[Glu-Hyp-D-Phe-Arg-Trp-Lys]-NH2] ({Palmitoyl(16-(5-tetrazolyl))-AEEA}-GSQH[X1][Nle]E[Hyp][dF]RWK-NH2; lactam 7-12) | 58 % of vehicle | 69 % of vehicle |  |  |
| CCCC[C@H](NC(=O)[C@H](CCCCNC(=O)CN(CC(=O)O)CC(=O)O)NC(=O)[C@H](CO)NC(=O)[C@H](CCC(N)=O)NC(=O)[C@H](CO)NC(=O)CNC(=O)COCCOCCNC(=O)CCCCCCCCCCCCCCCc1nnn[nH]1)C(=O)N[C@H]1CCC(=O)NCCCC[C@@H](C(N)=O)NC(=O)[C@H](Cc2c[nH]c3ccccc23)NC(=O)[C@H](CCCNC(=N)N)NC(=O)[C@@H](Cc2ccccc2)NC(=O)[C@@H]2C[C@@H](O)CN2C1=O [Example 15, (2-{2-[16-(Tetrazol-5-yl)hexadecanoylamino]ethoxy}ethoxy)acetyl-Gly-Ser-Gln-Ser-Lys(BCMA)-Nle-c[Glu-Hyp-D-Phe-Arg-Trp-Lys]-NH2] ({Palmitoyl(16-(5-tetrazolyl))-AEEA}-GSQSK(NTA)[Nle]E[Hyp][dF]RWK-NH2; lactam 7-12) |  |  | 74 % of vehicle | 85 % of vehicle |
| CCCC[C@H](NC(=O)[C@H](CNC(=O)CN(CC(=O)O)CC(=O)O)NC(=O)[C@H](Cc1c[nH]cn1)NC(=O)[C@H](CCC(N)=O)NC(=O)[C@H](CO)NC(=O)CNC(=O)COCCOCCNC(=O)CCCCCCCCCCCCCCCc1nnn[nH]1)C(=O)N[C@H]1CCC(=O)NCCCC[C@@H](C(N)=O)NC(=O)[C@H](Cc2c[nH]c3ccccc23)NC(=O)[C@H](CCCNC(=N)N)NC(=O)[C@@H](Cc2ccccc2)NC(=O)[C@@H]2C[C@@H](O)CN2C1=O [Example 9, (2-{2-[16-(Tetrazol-5-yl)hexadecanoylamino]ethoxy}ethoxy)acetyl-Gly-Ser-Gln-His-Dap(BCMA)-Nle-c[Glu-Hyp-D-Phe-Arg-Trp-Lys]-NH2] ({Palmitoyl(16-(5-tetrazolyl))-AEEA}-GSQH[Dap](NTA)[Nle]E[Hyp][dF]RWK-NH2; lactam 7-12) | 47 % of vehicle | 57 % of vehicle |  |  |
| CCCC[C@H](NC(=O)CCNC(=O)[C@H](CCCCN(CC(=O)O)CC(=O)O)NC(=O)[C@H](Cc1c[nH]cn1)NC(=O)[C@H](CCC(N)=O)NC(=O)[C@H](CO)NC(=O)[C@H](CO)NC(=O)[C@H](CCC(N)=O)NC(=O)[C@@H](CO)NC(=O)CNC(=O)COCCOCCNC(=O)COCCOCCNC(=O)CCCCCCCCCCCCCCCCCCC(=O)O)C(=O)N[C@H]1CCC(=O)NCCCC[C@@H](C(N)=O)NC(=O)[C@H](Cc2c[nH]c3ccccc23)NC(=O)[C@H](CCCNC(=N)N)NC(=O)[C@@H](Cc2ccccc2)NC(=O)[C@@H]2C[C@@H](O)CN2C1=O [Example 22, {2-[2-(2-{2-[2-(19-Carboxynonadecanoylamino)ethoxy]ethoxy}acetylamino)ethoxy]ethoxy}acetyl-Gly-D-Ser-Gln-Ser-Ser-Gln-His-Lys(biscarboxymethyl)-β-Ala-Nle-c[Glu-Hyp-D-Phe-Arg-Trp-Lys]-NH2] ({C20 diacid-AEEA-AEEA}-G[dS]QSSQH[Lys(CH2CO2H)2][βAla][Nle]E[Hyp][dF]RWK-NH2; lactam 11-16) |  |  | 59 % of vehicle | 76 % of vehicle |
